Assay results reported in the supplement of paper PMC10949913.

Legend:
CU-ACC1 = assay: area under concentration-response curve (viability) (AUC (a.u.)); higher = less active; conditions: 48 h
Method in brief: (§1)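 For each of three adrenocortical carcinoma cell lines, 500–1,000 cells/well were placed in 5 µL medium in 1,536-well plates. A 23 nL volume of every library compound was added at 11 concentrations. Following 48 h, a 15-minute room-temperature CellTiter-Glo step preceded luminescence reading, with signals normalised per plate to vehicle and empty-well controls. AC50 and area under the curve were derived by curve fitting, retaining only inhibitory or non-responding curve classes.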

NCI-H295R = assay: as above; conditions: 48 h
Method in brief: as §1

Row | SMILES | area under concentration-response curve (CU-ACC1) | area under concentration-response curve (NCI-H295R)
1 | O=[S+]([O-])(CCSSCC[S+](=O)([O-])[O][Na])[O][Na] | 469 | 544
2 | C[C@@H]1CC(=O)Nc2cccc(-c3cnn(C(C)(C)C)c3)c2N1 | 551 | 570
3 | CC(C)c1ccccc1Cc1cc(C(=O)Nc2ccc([S+](=O)([O-])c3ccccc3C(C)(C)C)cc2)c(O)c(O)c1O | 293 | 205
4 | CN1CCCN(CC1)C2=CC=C3C(=O)\C(=C/4SC5=C(C=CC=C5)N4C3=N2)C(=O)NCC6=CN=C(C)C=N6 | 528 | 554
5 | O=C(O)CC/C=C\CC[C@@H]1[C@@H](N2CCCCC2)[C@@H](O)C[C@@H]1OCc1ccc(-c2ccccc2)cc1 | 389 | 424
6 | CC(C)CC(N(C)C)C1(c2ccc(Cl)cc2)CCC1 (stereo not drawn) | 291 | 349
7 | C[N]1N=CC=C1C/2=C(\C)N(C(=O)C(=C2)/C(=O)NCC3=NC=C(C=C3)[S+](C)([O-])=O)C4=CC=CC(=C4)C(F)(F)F | 380 | 277
8 | COC/1=C(\CNC(=O)C2=C(C)[N]([C@H](C)C3CCOCC3)C4=CC=CC=C24)C(=O)NC(=C1)/C | 357 | 429
9 | OC(=O)/C1=C/CCN(CCOC(C2=CC=C(C=C2)C(F)(F)F)C3=CC=C(C=C3)C(F)(F)F)C1 | 548 | 569
10 | CC(=O)Oc1ccccc1C(=O)O | 357 | 402
11 | CC1(C)CN(C(=O)c2ccc(-c3cccc4nc(NC(=O)C5CC5)nn34)cc2)C1 | 345 | 381
12 | Cc1cc(Oc2ccc3nc(COc4ccc(CC5SC(=O)NC5=O)cc4)n(C)c3c2)cc(C)c1N (stereo not drawn) | 512 | 556
13 | CCOC(=O)O[C@@]1(CC[C@H]2[C@@H]3CCC/4=C/C(=O)/C=C\[C@]4(C)[C@H]3[C@@H](O)C[C@]12C)C(=O)OCCl | 364 | 395
14 | COC1=CC=C2C(=CC=NC2=C1)OC3=CC=C(NC(=O)\C4=C(C)\N(CC(C)(C)O)N(C4=O)C5=CC=CC=C5)C=C3F | 398 | 459
15 | NC(=O)c1cnc2[nH]ccc2c1NC1C2CC3C[C@H]1CC(O)(C3)C2 (stereo partly drawn) | 519 | 547
16 | COc1nc(N)nc2c1ncn2C1OC(CO)C(O)C1O (stereo not drawn) | 461 | 469
17 | COC(=O)[C@@H]1CC/2=C/C(=O)CC[C@]2(C)[C@@]34O[C@@H]3C[C@@]5(C)[C@@H](CC[C@@]56CCC(=O)O6)[C@H]14 | 355 | 528
18 | CCC(C)(C)C(=O)O[C@H]1C[C@@H](C)\C=C2\C=C/[C@H](C)[C@H](CC[C@@H]3C[C@@H](O)CC(=O)O3)[C@@H]12 | 399 | 565
19 | Cc1nc(N)sc1-c1ccnc(Nc2ccc(N3CCOCC3)cc2)n1 | 400 | 414
20 | CN1CCN(CC1)C2=NC3=C(C=CC=C3)C(=N2)C/4=C(/C(=O)NC4=O)C5=C[NH]C6=C5C=CC=C6 | 498 | 523

Row | SMILES | area under concentration-response curve (CU-ACC1) | area under concentration-response curve (NCI-H295R)
21 | O=C(Nc1ccc(F)c(C(F)(F)F)c1)Nc1nnc(-c2ccncc2)s1 | 444 | 464
22 | C1C\N=C(\NC(C2CC2)C3CC3)O1 | 542 | 591
23 | O=C(O)CCc1ccc(NCc2cccc(Oc3ccccc3)c2)cc1 | 546 | 599
24 | O=C(Nc1cnn2ccc(N3CCC[C@@H]3c3cc(F)ccc3F)nc12)N1CC[C@H](O)C1 | 534 | 554
25 | CONC(=O)Nc1ccc(-c2sc3c(c2CN(C)C)c(=O)n(-c2ccc(OC)nn2)c(=O)n3Cc2c(F)cccc2F)cc1 | 354 | 458
26 | CO[C@@H](C(=O)N1Cc2[nH]nc(NC(=O)c3ccc(N4CCN(C)CC4)cc3)c2C1)c1ccccc1 | 539 | 549
27 | CC(=O)CC(C1=CC=CC=C1)C/2=C(O)/C3=CC=CC=C3OC2=O (stereo not drawn) | 491 | 533
28 | COCCOC(=O)C/1=C(C)/NC/2=C(C1C3=CC=CC(=C3)O)/C(=O)CC(C2)C4=C(OC)C=CC=C4 (stereo not drawn) | 446 | 507
29 | COc1cc2c(cc1OC)C1CC(=O)C(CC(C)C)CN1CC2 (stereo not drawn) | 506 | 567
30 | C=C1C[C@@]2(O)O[C@@]3(C[C@H]2C(C)C)[C@@H](C)CC[C@@H]13 | 487 | 541
31 | O=[S+]([O-])(F)Cc1ccccc1 | 510 | 517
32 | CCNC(=O)Nc1ncc(-c2cc(-c3c(C)cc(OC)cc3C)nc(-c3cnccn3)n2)s1 | 482 | 520
33 | CC1=CC(=CC=C1)OC/2=C/NC(=O)/N=C2 | 539 | 566
34 | C[C@H]1C[C@H]2[C@@H]3CC[C@](O)(C(=O)CO)[C@@]3(C)C[C@H](O)[C@@H]2[C@@]\4(C)/C=C\C(=O)\C=C14 | 520 | 553
35 | CC[C@@H]1[C@H](F)C(=O)N[C@@H]1COc1nccc2cc(C(N)=O)c(OC)cc12 | 472 | 532
36 | O=C(O)/C(S)=C/c1ccc(I)cc1 | 368 | 459
37 | O=C(NOCCO)c1cc(CN2OCCCC2=O)c(F)c(F)c1Nc1ccc(I)cc1F | 267 | 267
38 | CC1(C)O[C@@H]2C[C@H]3[C@@H]4CCC/5=C/C(=O)/C=C\[C@]5(C)[C@H]4[C@@H](O)C[C@]3(C)[C@@]2(O1)C(=O)CO | 469 | 524
39 | COc1cc(C(=O)O)ccc1NC(=O)[C@@H]1N[C@@H](CC(C)(C)C)[C@](C#N)(c2ccc(Cl)cc2F)[C@H]1c1cccc(Cl)c1F | 469 | 540
40 | CC(C)(S)[C@@H](N)C(=O)O | 637 | 711

Row | SMILES | area under concentration-response curve (CU-ACC1) | area under concentration-response curve (NCI-H295R)
41 | C[C@@H](Nc1ncnc2[nH]c(-c3ccc(O)cc3)cc12)c1ccccc1 | 300 | 328
42 | COc1cc2ncnc(Oc3cccc(NC(=O)Nc4cc(C(C)(C)C(F)(F)F)on4)c3)c2cc1OC | 446 | 467
43 | CC(C)Nc1cc(C(F)(F)F)cc2nc(NC(=O)c3cccnc3)nn12 | 373 | 412
44 | CNC(=O)c1ccc2c(c1)NC(=O)/C2=C(\Nc1cccc(CN(C)C)c1)c1ccccc1 | 323 | 441
45 | Cn1c(CCCC(=O)O)nc2cc(N(CCCl)CCCl)ccc21 | 475 | 540
46 | NC(=O)c1cc(F)cc2c1C(=O)N(C1CCN(C3CCC(F)(F)CC3)CC1)C2 | 541 | 568
47 | CN1C(=O)N[C@H](Cc2c[nH]c3c(Cl)cccc23)C1=O | 425 | 445
48 | Nc1nc2cc(-c3ccc4ncc(C(=O)N5CCOCC5)n4c3)ccc2o1 | 514 | 478
49 | CC1=CC=C(C=C1)N(C\C2=N\CCN2)C3=CC=CC(=C3)O | 479 | 518
50 | Cn1ncc(Cl)c1-c1cc(C(=O)N[C@H](CN)Cc2cccc(F)c2)sc1Cl | 305 | 335
51 | CC(=O)N[C@H]1CSSC[C@@H](C(N)=O)NC(=O)[C@H](C(C)C)NC(=O)[C@H](C)NC(=O)[C@H](Cc2cnc[nH]2)NC1=O | 501 | 551
52 | O=C(Nc1cnccc1Cl)N1CCN(Cc2ccc3c(c2)OC(F)(F)O3)CC1 | 330 | 414
53 | Cc1ccccc1C(=O)Nc1ccc(C(=O)N2CCCC(O)c3cc(Cl)ccc32)c(C)c1 (stereo not drawn) | 484 | 536
54 | O=C(CCNC(=O)c1ccc(OC(F)(F)F)cc1)N[C@@H]1CCCc2ccccc21 | 149 | 81
55 | C/C=C(/C(=C/C)c1ccc(O)cc1)c1ccc(O)cc1 |  | 366
56 | CC(C)Oc1ccc2c(=O)c(-c3ccccc3)coc2c1 |  | 559
57 | CNCc1ccc(-c2cc(-c3nc(-c4ccc([S+](=O)([O-])C(C)C)cc4)cnc3N)on2)cc1 |  | 413
58 | COc1ccc(N(C(=O)Oc2c(C)cccc2C)c2ccnc(Nc3ccc(N4CCN(C)CC4)cc3)n2)c(OC)c1 |  | 545
59 | C=CC(=O)N1CCC[C@@H](n2nc(-c3ccc(Oc4ccccc4)cc3)c3c(N)ncnc32)C1 |  | 459
